Among the test systems are MCF7 breast; NCI-H460 lung; SK-MEL-2 melanoma; DU-145 prostate; SNB-75 CNS; EKVX NSCLC; OVCAR-5 ovarian; NCI-H226 lung; HS 578T breast; MOLT-4 leukemia.
Common to all, as to assay: NCI tumour cell line growth inhibition, 48 h

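Protocol summary: plate cells (96-well), add compound at 5 concentrations, incubate 48 h, interpolate endpoints linearly. Here, GI50 denotes the concentration required for 50% inhibition of growth. Definition used: TGI = concentration required for complete inhibition of growth.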 Where only a bound is given, the exact number is not on record here.

For `Nc1nc(-c2ccccn2)c(-c2ccc3ncccc3n2)s1`, the GI50 with MCF7 breast, in the experiment on NCI-H460 lung, in the experiment on SK-MEL-2 melanoma, with DU-145 prostate, with SNB-75 CNS and in the experiment on EKVX NSCLC was greater than 25 µM in each case. The GI50 in the experiment on OVCAR-5 ovarian, in the experiment with NCI-H226 lung, in the experiment on HS 578T breast and with MOLT-4 leukemia was greater than 25 µM in each case. Also, the TGI with MCF7 breast, in the experiment on NCI-H460 lung, with SK-MEL-2 melanoma, in the experiment with DU-145 prostate, in the experiment with SNB-75 CNS and with EKVX NSCLC was greater than 25 µM each time. Further, the TGI with OVCAR-5 ovarian, in the experiment on NCI-H226 lung, with HS 578T breast and in the experiment on MOLT-4 leukemia was greater than 25 µM in each case.
As to `CC(C)c1c(C(=O)Nc2ccccc2)c(-c2ccccc2)c(-c2ccc(F)cc2)n1CC[C@@H](O)C[C@@H](O)CC(=O)O`, the GI50 in the experiment on MCF7 breast is 27.5 µM; in the experiment with NCI-H460 lung it was 41.3 µM; with SK-MEL-2 melanoma, 2.24 µM; with DU-145 prostate, 52.5 µM; in the experiment on SNB-75 CNS, 2.09 µM; with EKVX NSCLC, 49.4 µM. In addition, the GI50 is 57.2 µM in the experiment with OVCAR-5 ovarian, 25.5 µM with NCI-H226 lung, 15.6 µM with HS 578T breast and 28.8 µM with MOLT-4 leukemia. The TGI in the experiment on MCF7 breast is greater than 100 µM; with NCI-H460 lung, greater than 100 µM; with SK-MEL-2 melanoma it was 7.49 µM; in the experiment on DU-145 prostate, greater than 100 µM; with SNB-75 CNS it was greater than 26.5 µM; with EKVX NSCLC, greater than 100 µM. For the same compound, the TGI with OVCAR-5 ovarian was greater than 100 µM; in the experiment on NCI-H226 lung, greater than 100 µM; in the experiment on HS 578T breast, greater than 100 µM; in the experiment with MOLT-4 leukemia, 99.2 µM.
For the compound `N#CSc1c[nH]c2cccc(/C=C/C(=O)/C=C(O)/C=C/c3cccc4[nH]cc(SC#N)c34)c12`, the GI50 was 0.254 µM in the experiment on MCF7 breast; 0.228 µM in the experiment with NCI-H460 lung; 0.829 µM in the experiment with SK-MEL-2 melanoma; 0.484 µM with DU-145 prostate; 0.67 µM in the experiment on SNB-75 CNS; 0.285 µM in the experiment on EKVX NSCLC. Also, the GI50 was 0.714 µM in the experiment with OVCAR-5 ovarian, 0.607 µM in the experiment with NCI-H226 lung, 0.779 µM in the experiment on HS 578T breast and 0.322 µM in the experiment on MOLT-4 leukemia. The TGI in the experiment with MCF7 breast worked out at 1.45 µM; in the experiment with NCI-H460 lung, 0.899 µM; with SK-MEL-2 melanoma it was 1.93 µM; in the experiment with DU-145 prostate, 0.986 µM; in the experiment with SNB-75 CNS, 2.68 µM; in the experiment on EKVX NSCLC, 2.13 µM. The TGI was found to be 2.04 µM in the experiment on OVCAR-5 ovarian, 1.34 µM with NCI-H226 lung, 9.48 µM in the experiment on HS 578T breast and 1.48 µM in the experiment on MOLT-4 leukemia.
Turning to `C=C(CN1CCc2ccccc2C1)c1ccc(C(=O)Nc2cccc(N)c2)cc1`, the GI50 in the experiment on MCF7 breast is 17.5 µM; in the experiment on NCI-H460 lung it was 19.9 µM; in the experiment with SK-MEL-2 melanoma, 23.7 µM; in the experiment on DU-145 prostate, 19 µM; in the experiment with SNB-75 CNS, 15.6 µM; with EKVX NSCLC, 9.48 µM. For the same compound, the GI50 in the experiment on OVCAR-5 ovarian was 60.9 µM; in the experiment on NCI-H226 lung, 22.3 µM; with HS 578T breast, 24.7 µM; with MOLT-4 leukemia, 6 µM. For the same compound, the TGI in the experiment on MCF7 breast worked out at 42.8 µM; in the experiment with NCI-H460 lung it was 50 µM; in the experiment with SK-MEL-2 melanoma it was 48.4 µM; with DU-145 prostate, 44 µM; with SNB-75 CNS, 43 µM; in the experiment on EKVX NSCLC, 56.2 µM. For the same compound, the TGI in the experiment with OVCAR-5 ovarian is greater than 100 µM; with NCI-H226 lung, 50.8 µM; in the experiment on HS 578T breast, 58.1 µM; in the experiment with MOLT-4 leukemia, 28.6 µM.
`C/C=C/C(C/C=C(\C)CO[Si](C)(C)C(C)(C)C)O[Si](C)(C)C(C)(C)C` (centres undefined): the TGI with MCF7 breast, in the experiment with NCI-H460 lung, in the experiment with SK-MEL-2 melanoma, in the experiment on DU-145 prostate, in the experiment with SNB-75 CNS and with EKVX NSCLC was greater than 100 µM throughout. Besides, the TGI in the experiment on OVCAR-5 ovarian, in the experiment with NCI-H226 lung, with HS 578T breast and in the experiment on MOLT-4 leukemia was greater than 100 µM each time.
As to `c1c[nH]c(CN2CCN(Cc3ncc[nH]3)CC2)n1`, the TGI in the experiment with MCF7 breast, in the experiment on NCI-H460 lung, with SK-MEL-2 melanoma, in the experiment with DU-145 prostate, in the experiment with SNB-75 CNS and in the experiment on EKVX NSCLC was greater than 100 µM in each case. For the same compound, the TGI in the experiment on OVCAR-5 ovarian, in the experiment on NCI-H226 lung, in the experiment with HS 578T breast and in the experiment with MOLT-4 leukemia was greater than 100 µM in each case.
With `COc1ncc(-c2ccc3nc(N)n(-c4ccccc4C(F)(F)F)c(=O)c3c2)cc1S(=O)(=O)Nc1ccc(F)cc1F`, the GI50 in the experiment with MCF7 breast was 2.05 µM; in the experiment on NCI-H460 lung, 5.03 µM; in the experiment with SK-MEL-2 melanoma, 2.28 µM; with DU-145 prostate, 0.897 µM; in the experiment on SNB-75 CNS, 0.866 µM; in the experiment on EKVX NSCLC it was 0.86 µM. The GI50 with OVCAR-5 ovarian was 1.03 µM; in the experiment with NCI-H226 lung it was 8.68 µM; in the experiment on HS 578T breast, 1.3 µM; in the experiment on MOLT-4 leukemia, 3.85 µM. For the same compound, the TGI in the experiment on MCF7 breast was 29.4 µM; in the experiment with NCI-H460 lung it was 36.6 µM; in the experiment with SK-MEL-2 melanoma, 11.9 µM; in the experiment on DU-145 prostate, greater than 100 µM; in the experiment with SNB-75 CNS it was greater than 100 µM; with EKVX NSCLC it was greater than 100 µM. The TGI in the experiment with OVCAR-5 ovarian is 9.81 µM; with NCI-H226 lung, greater than 100 µM; in the experiment with HS 578T breast it was 84.4 µM; in the experiment on MOLT-4 leukemia, 56.1 µM.
As to `CC1(C)CCC(c2ccc(Cl)cc2)=C(CN2CCN(c3ccc(C(=O)NS(=O)(=O)c4ccc(N[C@H](CCN5CCOCC5)CSc5ccccc5)c(S(=O)(=O)C(F)(F)F)c4)cc3)CC2)C1`, the GI50 was 2.11 µM in the experiment with MCF7 breast; 1.87 µM with NCI-H460 lung; 1.86 µM in the experiment with SK-MEL-2 melanoma; 2.76 µM in the experiment with DU-145 prostate; 2.05 µM in the experiment with SNB-75 CNS; 1.43 µM with EKVX NSCLC. Moreover, the GI50 with OVCAR-5 ovarian is 1.85 µM; in the experiment on NCI-H226 lung, 1.62 µM; in the experiment with HS 578T breast, 2.66 µM; in the experiment with MOLT-4 leukemia, 0.124 µM. For the same compound, the TGI in the experiment with MCF7 breast was 5.51 µM; with NCI-H460 lung, 3.71 µM; in the experiment with SK-MEL-2 melanoma, 4.35 µM; with DU-145 prostate it was 7.12 µM; in the experiment on SNB-75 CNS, 4.16 µM; in the experiment with EKVX NSCLC, 3.24 µM. The TGI in the experiment with OVCAR-5 ovarian is 4.05 µM; with NCI-H226 lung, 3.13 µM; in the experiment on HS 578T breast it was greater than 24.5 µM.
